Experimental data: patent US6858739B2, “Indole and benzimidazole 15-lipoxygenase inhibitors” (Warner-Lambert Company, priority 2000, dated 2005)
pIC50: −log10 of the molar value. Structures can show the parent of a compound that is named as a salt.

Columns and labels:
human 15-LO = target: T1, human 15-LO (Homo sapiens, UniProt P16050); test: 15-LO inhibition, human enzyme; format: biochemical; settings: linoleic acid as substrate; for inhibition at 10 µM: at 10 micromolar
T1 sequence (P16050 1-662): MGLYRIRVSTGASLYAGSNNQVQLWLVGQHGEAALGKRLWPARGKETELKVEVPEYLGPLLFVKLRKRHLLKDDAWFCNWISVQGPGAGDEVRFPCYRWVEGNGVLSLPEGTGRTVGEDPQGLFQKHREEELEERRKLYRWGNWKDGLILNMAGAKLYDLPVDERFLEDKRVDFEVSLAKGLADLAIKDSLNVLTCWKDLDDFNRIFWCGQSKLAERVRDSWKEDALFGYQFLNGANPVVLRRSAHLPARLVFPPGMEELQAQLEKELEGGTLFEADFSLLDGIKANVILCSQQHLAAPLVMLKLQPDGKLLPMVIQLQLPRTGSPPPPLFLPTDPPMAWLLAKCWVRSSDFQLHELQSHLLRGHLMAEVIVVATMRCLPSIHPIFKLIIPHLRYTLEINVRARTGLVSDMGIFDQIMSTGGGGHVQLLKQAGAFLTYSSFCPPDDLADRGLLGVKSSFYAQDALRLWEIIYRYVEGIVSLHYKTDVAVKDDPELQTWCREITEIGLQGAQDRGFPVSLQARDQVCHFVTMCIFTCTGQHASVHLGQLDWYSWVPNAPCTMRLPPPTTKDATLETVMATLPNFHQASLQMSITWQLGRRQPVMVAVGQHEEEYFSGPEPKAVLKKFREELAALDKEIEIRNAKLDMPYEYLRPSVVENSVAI
Method: The compounds described above are effective inhibitors of 15-LO when evaluated in standard assays routinely utilized to measure 15-LO activity. Specifically, representative compounds were evaluated by the methods described by Auerbach et al., Analytical Biochemistry, 1992;201:375-380. Two in vitro assays were utilized, one utilizing rabbit reticulocyte 15-LO, the other using human 15-LO. Both used linoleic acid as substrate, to enzymatically produce a peroxide oxidation product known as 13(S)-HPODE. N-Benzoyl leucomethylene blue was utilized as a colorimetric reagent for detection and quantification of the peroxide formation. Also, HPLC was utilized to quantify the oxidation following incubation at 4° C. for 10 minutes.
Data Column 1 gives the concentration of compound required to inhibit 50% of the activity of 15-LO (IC50) when measured by the HPLC method of Auerbach et al. using rabbit enzymes, and data Column 2 gives data from human 15-LO enzyme.

For `COc1ccc(-c2cc3cc(F)c(F)cc3[nH]2)cc1Nc1cccc(OCc2ccccc2)c1` (as salt: HCl) [Example 53, [5-(5,6-Difluoro-1H-indol-2-yl)-2-methoxy-phenyl]-(3-benzyloxy-phenyl)-amine], the melting point was 200 to 201 °C (dec.).

`COc1ccc(-c2cc3cc(F)c(F)cc3[nH]2)cc1NS(=O)(=O)c1cccc(N)c1` [Example 16, 3-Amino-N-[5-(5,6-difluoro-1H-indol-2-yl)-2-methoxy-phenyl]-benzenesulfonamide] gave a pIC50 (human 15-LO) of 7.70 and a melting point of 235 to 238 °C.

With `COc1ccc(-c2cc3ccccc3[nH]2)cc1NC(=S)Nc1ccc(S(N)(=O)=O)cc1` [Example 17, 4-{3-[5-(1H-Indol-2-yl)-2-methoxy-phenyl]-thioureido}-benzenesulfonamide] the pIC50 (human 15-LO) was 6.73.

For `CCCCCCCCCCCCS(=O)(=O)Nc1cc(-c2cc3cc(F)c(F)cc3[nH]2)ccc1OC` [Example 20, Dodecane-1-sulfonic acid [5-(5,6-difluoro-1H-indol-2-yl)-methoxy-phenyl]-amide], the pIC50 (human 15-LO) was 7.89 and the melting point was 148 to 149 °C.

Work on `CCCCCCCCCCCCS(=O)(=O)Nc1cc(-c2nc3cc(Cl)c(Cl)cc3[nH]2)ccc1OC` [Example 21, Dodecane-1-sulfonic acid [5-(5,6-dichloro-1H-benzoimidazol-2-yl)-2-methoxy-phenyl]-amide] yielded an inhibition at 10 µM (human 15-LO) of 65% and a melting point of 203 to 204 °C.

Work on `COc1ccc(-c2cc3cc(F)c(F)cc3[nH]2)cc1Nc1cccc(C(F)(F)F)c1` [Example 22, [5-(5,6-Difluoro-1H-indol-2-yl)-2-methoxy-phenyl]-(3-trifluoro-methylphenyl)-amine] yielded a pIC50 (human 15-LO) of 7.32 and a melting point of 144 to 146 °C.

For `CCOP(=O)(Cc1ccc(NC(=S)Nc2cc(-c3cc4ccccc4[nH]3)ccc2OC)cc1)OCC` [Example 23, (4-{3-[5-(1H-Indol-2-yl)-2-methoxy-phenyl]-thioureido}-benzyl)-phosphonic acid diethyl ester], the pIC50 (human 15-LO) was 6.48.

`COc1ccc(-c2cc3cc(F)c(F)cc3[nH]2)cc1NC(=O)Nc1cc(Cl)cc(Cl)c1` [Example 25, 1-(3,5-Dichloro-phenyl)-3-[5-(5,6-difluoro-1H-indol-2-yl)-2-methoxy-phenyl]-urea] gave a pIC50 (human 15-LO) of 5.68 and a melting point of 240 to 243 °C.

Work on `COc1ccc(-c2cc3ccccc3[nH]2)cc1NC(N)=S` [Example 26, [5-(1H-Indol-2-yl)-2-methoxy-phenyl]-thiourea] yielded a pIC50 (human 15-LO) of 6.59 and a melting point of 188 to 191 °C.

Work on `COc1ccc(-c2cc3ccccc3[nH]2)cc1NC(=S)N[C@H](C)c1ccccc1` [Example 27, (R)-1-[5-(1H-Indol-2-yl)-2-methoxy-phenyl]-3(1-phenyl-ethyl)-thiourea] yielded a pIC50 (human 15-LO) of 5.75 and a melting point of 179 to 181 °C.

For `COc1ccc(-c2cc3cc(F)c(F)cc3[nH]2)cc1NS(=O)(=O)c1cccc(C#N)c1` [Example 28, 3Cyano-N-[5-(5,6-difluoro-1H-indol-2-yl)-2-methoxy-phenyl]-benzenesulfonamide], the pIC50 (human 15-LO) was 6.10 and the melting point was 239 to 242 °C.

Work on `CNc1cc(-c2cc3ccccc3[nH]2)ccc1OC` [Example 29, [5-(1H-Indol-2-yl)-2-methoxy-phenyl]-methyl-amine] yielded a pIC50 (human 15-LO) of 6.33.

For `COc1ccc(-c2cc3cc(F)c(F)cc3[nH]2)cc1NC(=S)Nc1cc(C(=O)O)cc(C(=O)O)c1` [Example 30, 5-{3-[5-(5,6-Difluoro-1H-indol-2-yl)-2-methoxy-phenyl]-thioureido}-isophthalic acid], the pIC50 (human 15-LO) was 5.74.

Compound `COc1ccc(-c2cc3ccccc3[nH]2)cc1NC(=S)NCCNC(=O)OC(C)(C)C` [Example 31, (2-{3-[5-(1H-Indol-2-yl)-2-methoxy-phenyl]-thioureido}-ethyl)-carbamic acid tert-butyl ester] has a pIC50 (human 15-LO) of 6.85 and a melting point of 159 to 160 °C.

For `COc1ccc(-c2cc3ccccc3[nH]2)cc1NC(=S)Nc1ccc(C(=O)O)cc1` [Example 32, 4-{3-[5-(1H-Indol-2-yl)-2-methoxy-phenyl]-thioureido}-benzoic acid], the pIC50 (human 15-LO) was 6.52 and the melting point was 201 to 203 °C.

`COc1ccc(-c2cc3ccccc3[nH]2)cc1NC(=S)Nc1cccc(CC(=O)O)c1` [Example 33, (3-{3-[5-(1H-Indol-2-yl)-2-methoxy-phenyl]-thioureido}-phenyl)-acetic acid] gave a pIC50 (human 15-LO) of 6.13 and a melting point of 174 to 175 °C.

Work on `COc1ccc(-c2cc3ccccc3[nH]2)cc1NC(=S)Nc1ccc(CC(=O)O)cc1` [Example 34, (4-{3-[5-(1H-Indol-2-yl)-2-methoxy-phenyl]-thioureido}-phenyl)-acetic acid] yielded a pIC50 (human 15-LO) of 5.84 and a melting point of 190 to 192 °C.

Compound `COc1ccc(-c2cc3cc(F)c(F)cc3[nH]2)cc1NC(=S)N[C@@H](C)c1ccccc1` [Example 35, 1-[5-(5,6-Difluoro-1H-indol-2-yl)-2-methoxy-phenyl]-3-((S)-1-phenyl-ethyl)-thiourea] has a pIC50 (human 15-LO) of 6.27 and a melting point of 102 to 106 °C.

Work on `COc1ccc(-c2cc3cc(F)c(F)cc3[nH]2)cc1NC(=S)N[C@@H](COC(C)(C)C)C(=O)OC(C)(C)C` [Example 36, (S)-3-tert-Butoxy-2-{3-[5-(5,6-Difluoro-1H-indol-2-yl)-2-methoxy-phenyl]-thioureido}-propionic acid tert-butyl ester] yielded an inhibition at 10 µM (human 15-LO) of 51% and a melting point of 111 to 114 °C.

For `COc1ccc(-c2cc3cc(F)c(F)cc3[nH]2)cc1NC(=S)N[C@@H](CO)[C@@H](O)c1ccccc1` [Example 40, 1-[5-(5,6-Difluoro-1H-indol-2-yl)-2-methoxy-phenyl]-3-((1S,2S)-2-hydroxy-1-hydroxymethyl-2-phenyl-ethyl)-thiourea], the pIC50 (human 15-LO) was 6.21.

Work on `COc1ccc(-c2cc3ccccc3[nH]2)cc1NCc1cccc([N+](=O)[O-])c1` [Example 42, [5-(1H-indol-2-yl)-2-methoxy-phenyl]-(3-nitro-benzyl)-amine] yielded a pIC50 (human 15-LO) of 6.06 and a melting point of 160 to 162 °C.

Compound `COc1ccc(-c2cc3ccccc3[nH]2)cc1NCc1ccc([N+](=O)[O-])cc1` [Example 43, [5-(1H-Indol-2-yl)-2-methoxy-phenyl]-(4-nitro-benzyl)-amine] has a pIC50 (human 15-LO) of 6.04 and a melting point of 198 to 199 °C.

Compound `COc1ccc(-c2cc3ccccc3[nH]2)cc1NCc1ccc([N+](=O)[O-])c(O)c1` [Example 44, [5-(1H-Indol-2-yl)-2-methoxy-phenyl]-(3-hydroxy-4-nitro-benzyl)-amine] has a pIC50 (human 15-LO) of 6.63 and a melting point of 134 to 135 °C.

Compound `COc1ccc(-c2cc3ccccc3[nH]2)cc1NCc1ccc(O)c([N+](=O)[O-])c1` [Example 45, [5-(1H-Indol-2-yl)-2-methoxy-phenyl]-(4-hydroxy-3-nitro-benzyl)-amine] has a pIC50 (human 15-LO) of 6.38 and a melting point of 165 to 166 °C.

For `COc1ccc(-c2cc3cc(F)c(F)cc3[nH]2)cc1NCc1cccc([N+](=O)[O-])c1` [Example 46, [5-(5,6-Difluoro-1H-indol-2-yl)-2-methoxy-phenyl]-(3-nitro-benzyl)-amine], the pIC50 (human 15-LO) was 5.52 and the melting point was 212 to 214 °C.

Compound `COc1ccc(-c2cc3cc(F)c(F)cc3[nH]2)cc1NCc1ccc([N+](=O)[O-])cc1` [Example 47, [5-(5,6-Difluoro-1H-indol-2-yl)-2-methoxy-phenyl]-(4nitro-benzyl)-amine] has a pIC50 (human 15-LO) of 6.27 and a melting point of 181 to 182 °C.

In the case of `COc1ccc(-c2cc3cc(F)c(F)cc3[nH]2)cc1NCc1ccc([N+](=O)[O-])c(O)c1` [Example 48, [5-(5,6-Difluoro-1H-indol-2-yl)-2-methoxy-phenyl]-(3-hydroxy-4-nitro-benzyl)-amine], the inhibition at 10 µM (human 15-LO) was 98% and the melting point was 170 to 171 °C.

`COc1ccc(-c2cc3cc(F)c(F)cc3[nH]2)cc1NCc1ccc(O)c([N+](=O)[O-])c1` [Example 49, [5-(5,6-Difluoro-1H-indol-2-yl)-2-methoxy-phenyl](4-hydroxy-3-nitro-benzyl)-amine] showed an inhibition at 10 µM (human 15-LO) of 99% and a melting point of 195 to 196 °C.

`COc1ccc(-c2cc3cc(F)c(F)cc3[nH]2)cc1NCc1cccc(C#N)c1` [Example 51, [5-(5,6-Difluoro-1H-indol-2yl)-2-methoxy-phenyl]-(3-cyano-benzyl)-amine] showed a pIC50 (human 15-LO) of 6.36 and a melting point of 154 to 155 °C.

Work on `COC(=O)c1ccc(Nc2cc(-c3cc4cc(F)c(F)cc4[nH]3)ccc2OC)cc1` [Example 52, 4-[5-(5,6-Difluoro-1H-indol-2-yl)-2-methoxy-phenylamino]-benzoic acid methyl ester] yielded a pIC50 (human 15-LO) of 7.51 and a melting point of 166 to 170 °C.
